Experimental data taken from paper PMC5668678 (Biochemistry and Biophysics Reports, 2015).

Columns and labels:
MmKv2 channel = details: ref [24]; cited from earlier work
KCNQ1-K318M channel = experiment: Patch clamp of KCNQ1 single residue mutant at Lys318, sensitivity to ChTX; assay type: cell-based, human; details: site-directed mutant, HEK293 cells, Fig. 3
KCNQ1-M1 channel chimera = experiment: Patch clamp of KCNQ1-M1 chimera currents; assay type: cell-based, human; details: 1 μM ChTX, HEK293 cells, turret and filter region mutant
KCNQ1-M3 chimera channel = experiment: Patch clamp of KCNQ1-M3 chimera currents; assay type: cell-based, human; details: 1 μM ChTX, HEK293 cells, turret region mutant
KCNQ1-Q321V channel = experiment: Patch clamp of KCNQ1 single residue mutant at Q321, sensitivity to ChTX; assay type: cell-based, human; details: site-directed mutant, HEK293 cells, Fig. 3
KCNQ1-M2 chimera channel = experiment: Patch clamp of KCNQ1-M2 chimera currents; assay type: cell-based, human; details: 1 μM ChTX, HEK293 cells, filter region mutant
MmKv1 channel = details: versus Kv1.3; ref [24]; cited from earlier work

charybdotoxin [ChTX]
sensitivity of MmKv2 toward scorpion venom and ChTX (MmKv2 channel): completely insensitive | effect of residue Lys318 on the binding of ChTX (KCNQ1-K318M channel): found to affect the binding of ChTX | inhibition of KCNQ1-M1 channel currents (KCNQ1-M1 channel chimera): effectively inhibited | inhibition of KCNQ1-M3 channel currents (KCNQ1-M3 chimera channel): not effectively inhibited | effect of residue Q321 on the binding of ChTX (KCNQ1-Q321V channel): did not affect the binding of ChTX | inhibition of KCNQ1-M2 channel currents (KCNQ1-M2 chimera channel): effectively inhibited | sensitivity of MmKv1 toward scorpion venom and ChTX, compared with Kv1.3 (MmKv1 channel): weaker sensitivity
